{"source": "BindingDB's records for doi:10.1016/j.ejmech.2019.111668", "about": "(Yantai University, 2019)", "key": {"[1]": {"experiment": "Reversal of P-gp-mediated multidrug resistance in human KBV cells assessed as potentiation of irinotecan-induced cytotoxicity by measuring irinotecan IC50 at 10 uM after 72 hrs by MTT assay (Rvb = 49.2 +/- 0.46 nM)"}, "[2]": {"experiment": "Reversal of P-gp-mediated multidrug resistance in human KBV cells assessed as potentiation of vincristine-induced cytotoxicity by measuring vincristine IC50 at 5 uM after 72 hrs by MTT assay (Rvb = 2.92 +/- 0.31 nM)"}, "[3]": {"experiment": "Reversal of P-gp-mediated multidrug resistance in human KBV cells assessed as potentiation of paclitaxel-induced cytotoxicity by measuring paclitaxel IC50 at 10 uM after 72 hrs by MTT assay (Rvb = 352.31 +/- 10.9 nM)"}, "[4]": {"experiment": "Reversal of P-gp-mediated multidrug resistance in human KBV cells assessed as potentiation of paclitaxel-induced cytotoxicity by measuring paclitaxel IC50 at 5 uM after 72 hrs by MTT assay (Rvb = 352.31 +/- 10.9 nM)"}, "[5]": {"experiment": "Reversal of P-gp-mediated multidrug resistance in human KBV cells assessed as potentiation of vincristine-induced cytotoxicity by measuring vincristine IC50 at 10 uM after 72 hrs by MTT assay (Rvb = 2.92 +/- 0.31 nM)"}, "[6]": {"experiment": "Reversal of P-gp-mediated multidrug resistance in human KBV cells assessed as potentiation of irinotecan-induced cytotoxicity by measuring irinotecan IC50 at 5 uM after 72 hrs by MTT assay (Rvb = 49.2 +/- 0.46 nM)"}}}
{"smiles": "CC(=O)O[C@H]1C[C@@]2(C)[C@@H](C[C@@H](O)[C@H]3[C@@]4(C)CC[C@@H](O)[C@@H](C)[C@@H]4CC[C@@]32C)/C1=C(\\CCC=C(C)C)C(=O)OCc1ccccc1", "values": [{"measurement": "IC50", "setting": "[1]", "value": 16200, "unit": "nM"}, {"measurement": "IC50", "setting": "[2]", "value": 144, "unit": "nM"}, {"measurement": "IC50", "setting": "[3]", "value": 7, "unit": "nM"}, {"measurement": "IC50", "setting": "[4]", "value": 17, "unit": "nM"}, {"measurement": "IC50", "setting": "[5]", "value": 92, "unit": "nM"}, {"measurement": "IC50", "setting": "[6]", "value": 37200, "unit": "nM"}]}
